Our source for the IC50 values is US10364245B2 (CHIESI FARMACEUTICI S.p.A., priority 2017, dated 2019).

In assay [1] the test system is Peripheral Blood Mononuclear Cells (PBMCs), TNFα release. Description: LPS-stimulated PBMC TNFα release assay. Particulars: human PBMC, LPS (10 ng/ml), 18 h, compound 1 h before LPS; read-out: LPS-stimulated PBMC TNFα release inhibition. Type of assay: cell-based. The essentials:
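Human PBMCs from healthy donors, serum-starved 3 h, then pre-incubated 1 h at 37 °C with compound in 1% FBS medium before LPS (10 ng/ml) for 18 h. Supernatant TNFα measured by MSD; IC50 from dose-response as % inhibition of control, at least three experiments.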

In a further assay the target is T1, p38 alpha (Homo sapiens, UniProt Q16539).
T1 construct: purchased Invitrogen PV3304
The assay is described as follows: P38 alpha enzyme inhibition assay (Alphascreen kinase activity assay). In kind it is biochemical. Particulars: 100 pM p38 alpha, 2 hours preincubation at 25° C., 250 μM ATP, ATF-2 fusion protein; read-out: p38α inhibition. In short, it runs like this: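 100 pM p38 alpha preincubated 2 h at 25 °C with compound and 0.3 μg/ml ATF-2 fusion substrate (HEPES pH 7.5, MgCl2, 1% DMSO). Reaction started with 250 μM ATP, run 1 h at 25 °C, stopped with EDTA; phospho-ATF2 detected by AlphaScreen luminescence. IC50 from concentration-response curves.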

T1 sequence (Q16539 whole entry): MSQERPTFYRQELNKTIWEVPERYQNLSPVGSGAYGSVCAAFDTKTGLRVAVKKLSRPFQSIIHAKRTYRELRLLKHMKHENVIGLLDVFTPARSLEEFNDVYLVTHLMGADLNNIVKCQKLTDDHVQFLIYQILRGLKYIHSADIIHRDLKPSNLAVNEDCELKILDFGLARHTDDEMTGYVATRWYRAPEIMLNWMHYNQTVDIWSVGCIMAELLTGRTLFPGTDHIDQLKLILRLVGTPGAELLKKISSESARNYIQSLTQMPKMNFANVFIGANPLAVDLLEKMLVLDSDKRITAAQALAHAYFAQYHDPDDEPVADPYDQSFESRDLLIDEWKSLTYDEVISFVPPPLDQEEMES

Take `CC(C)(C)c1cc(NC(=O)N[C@H]2CC[C@@H](Oc3ccc4nnc(C(C)(C)C)n4c3)c3ccccc32)nc(C(=O)NCCN2CC(O)C2)n1` [Example 78, 4-(tert-butyl)-6-(3-((1S,4R)-4-((3-(tert-butyl)-[1,2,4]triazolo[4,3-a]pyridin-6-yl)oxy)-1,2,3,4-tetrahydronaphthalen-1-yl)ureido)-N-(2-(3-hydroxyazetidin-1-yl)ethyl)pyrimidine-2-carboxamide]: the IC50 is greater than 5 nM in assay [1] and less than 1 nM at p38 alpha.

As for `CC(C)(C)c1cc(NC(=O)N[C@H]2CC[C@@H](Oc3ccc4nnc(C(C)(C)C)n4c3)c3ccccc32)nc(C(=O)NCCCN2CCOCC2)n1` [Example 80, 4-(tert-butyl)-6-(3-((1S,4R)-4-((3-(tert-butyl)-[1,2,4]triazolo[4,3-a]pyridin-6-yl)oxy)-1,2,3,4-tetrahydronaphthalen-1-yl)ureido)-N-(3-morpholinopropyl)-pyrimidine-2-carboxamide], the IC50 in assay [1] is 1 to 5 nM; at p38 alpha it was 1 to 10 nM.

Consider `CN1CC(NC(=O)c2nc(NC(=O)N[C@H]3CC[C@@H](Oc4ccc5nnc(C(C)(C)C)n5c4)c4ccccc43)cc(C(C)(C)C)n2)C1` [Example 81, 4-(tert-butyl)-6-(3-((1S,4R)-4-((3-(tert-butyl)-[1,2,4]triazolo[4,3-a]pyridin-6-yl)oxy)-1,2,3,4-tetrahydronaphthalen-1-yl)ureido)-N-(1-methylazetidin-3-yl)pyrimidine-2-carboxamide], for which the IC50 is greater than 5 nM in assay [1] and less than 1 nM at p38 alpha.

As to `CN(CCO)C(=O)c1nc(NC(=O)N[C@H]2CC[C@@H](Oc3ccc4nnc(C(C)(C)C)n4c3)c3ccccc32)cc(C(C)(C)C)n1` [Example 82, 4-(tert-butyl)-6-(3-((1S,4R)-4-((3-(tert-butyl)-[1,2,4]triazolo[4,3-a]pyridin-6-yl)oxy)-1,2,3,4-tetrahydronaphthalen-1-yl)ureido)-N-(2-hydroxyethyl)-N-methylpyrimidine-2-carboxamide], the IC50 is greater than 5 nM in assay [1] and 1 to 10 nM on p38 alpha.

Regarding `CC(C)(C)c1cc(NC(=O)N[C@H]2CC[C@@H](Oc3ccc4nnc(C(C)(C)C)n4c3)c3ccccc32)nc(C(=O)N[C@H]2C[C@H](CO)C2)n1` [Example 83, 4-(tert-butyl)-6-(3-((1S,4R)-4-((3-(tert-butyl)-[1,2,4]triazolo[4,3-a]pyridin-6-yl)oxy)-1,2,3,4-tetrahydronaphthalen-1-yl)ureido)-N-((1s,3R)-3-(hydroxymethyl)-cyclobutyl)pyrimidine-2-carboxamide], the IC50 in assay [1] is 1 to 5 nM; on p38 alpha, less than 1 nM.

Turning to `CCC(CC)c1nnc2ccc(O[C@@H]3CC[C@H](NC(=O)Nc4cc(C(C)(C)C)nc(C(=O)NC5CN(C)C5)n4)c4ccccc43)cn12` [Example 84, 4-(tert-butyl)-N-(1-methylazetidin-3-yl)-6-(3-((1S,4R)-4-((3-(pentan-3-yl)-[1,2,4]triazolo[4,3-a]pyridin-6-yl)oxy)-1,2,3,4-tetrahydronaphthalen-1-yl)ureido)pyrimidine-2-carboxamide], the IC50 in assay [1] is greater than 5 nM; on p38 alpha, less than 1 nM.

With `CCC(CC)c1nnc2ccc(O[C@@H]3CC[C@H](NC(=O)Nc4cc(C(C)(C)C)nc(C(=O)NCCN(CCOC)CCOC)n4)c4ccccc43)cn12` [Example 85, N-(2-(bis(2-methoxyethyl)amino)ethyl)-4-(tert-butyl)-6-(3-((1S,4R)-4-((3-(pentan-3-yl)-[1,2,4]triazolo[4,3-a]pyridin-6-yl)oxy)-1,2,3,4-tetrahydronaphthalen-1-yl)ureido)pyrimidine-2-carboxamide], the IC50 is greater than 5 nM in assay [1] and less than 1 nM at p38 alpha.

For the molecule `COCCN(CCOC)Cc1nc(NC(=O)N[C@H]2CC[C@@H](Oc3ccc4nnc(C(C)(C)C)n4c3)c3ccccc32)cc(C(C)(C)C)n1` [Example 86, 1-(2-((bis(2-methoxyethyl)amino)methyl)-6-(tert-butyl)pyrimidin-4-yl)-3-((1S,4R)-4-((3-(tert-butyl)-[1,2,4]triazolo[4,3-a]pyridin-6-yl)oxy)-1,2,3,4-tetrahydronaphthalen-1-yl)urea], the results for the IC50 (in assay [1]; at p38 alpha) were greater than 5 nM and 1 to 10 nM, respectively.

Regarding `CC(C)(C)c1cc(NC(=O)N[C@H]2CC[C@@H](Oc3ccc4nnc(C(C)(C)C)n4c3)c3ccccc32)nc(CN(CCO)CCO)n1` [Example 87, 1-(2-((bis(2-hydroxyethyl)amino)methyl)-6-(tert-butyl)pyrimidin-4-yl)-3-((1S,4R)-4-((3-(tert-butyl)-[1,2,4]triazolo[4,3-a]pyridin-6-yl)oxy)-1,2,3,4-tetrahydronaphthalen-1-yl)urea], the IC50 is greater than 5 nM in assay [1] and less than 1 nM at p38 alpha.

With `CN(CCO)Cc1nc(NC(=O)N[C@H]2CC[C@@H](Oc3ccc4nnc(C(C)(C)C)n4c3)c3ccccc32)cc(C(C)(C)C)n1` [Example 88, 1-(6-(tert-butyl)-2-(((2-hydroxyethyl)(methyl)amino)methyl)pyrimidin-4-yl)-3-((1S,4R)-4-((3-(tert-butyl)-[1,2,4]triazolo[4,3-a]pyridin-6-yl)oxy)-1,2,3,4-tetrahydronaphthalen-1-yl)urea], the IC50 in assay [1] was greater than 5 nM; at p38 alpha, 1 to 10 nM.

Take `CC(C)(C)c1cc(NC(=O)N[C@H]2CC[C@@H](Oc3ccc4nnc(C(C)(C)C)n4c3)c3ccccc32)nc(C(=O)NCCN2CCCOCC2)n1` [Example 89, N-(2-(1,4-oxazepan-4-yl)ethyl)-4-(tert-butyl)-6-(3-((1S,4R)-4-((3-(tert-butyl)-[1,2,4]triazolo[4,3-a]pyridin-6-yl)oxy)-1,2,3,4-tetrahydronaphthalen-1-yl)ureido)pyrimidine-2-carboxamide]: the results for the IC50 (in assay [1]; on p38 alpha) were 1 to 5 nM and 1 to 10 nM, respectively.

Consider `CC(C)Cc1nnc2ccc(O[C@@H]3CC[C@H](NC(=O)Nc4cc(C(C)(C)C)nc(C(=O)NCCN(C)C)n4)c4ccccc43)cn12` [Example 91, 4-(tert-butyl)-N-(2-(dimethylamino)ethyl)-6-(3-((1S,4R)-4-((3-isobutyl-[1,2,4]triazolo[4,3-a]pyridin-6-yl)oxy)-1,2,3,4-tetrahydronaphthalen-1-yl)ureido)pyrimidine-2-carboxamide], for which the IC50 in assay [1] is greater than 5 nM; on p38 alpha, 1 to 10 nM.

In the case of `COCCN(CCNC(=O)c1nc(NC(=O)N[C@H]2CC[C@@H](Oc3ccc4nnc(C(C)(C)C)n4c3)c3ccccc32)cc(C(C)(C)C)n1)CCOC` [Example 92, N-(2-(bis(2-methoxyethyl)amino)-ethyl)-4-(tert-butyl)-6-(3-((1S,4R)-4-((3-(tert-butyl)-[1,2,4]triazolo[4,3-a]pyridin-6-yl)oxy)-1,2,3,4-tetrahydronaphthalen-1-yl)ureido)pyrimidine-2-carboxamide], the IC50 in assay [1] was greater than 5 nM; at p38 alpha it was 1 to 10 nM.

As to `CC(C)(C)c1cc(NC(=O)N[C@H]2CC[C@@H](Oc3ccc4nnc(C(C)(C)C)n4c3)c3ccccc32)nc(C(=O)NCCN2CC[C@@H](O)C2)n1` [Example 93, 4-(tert-butyl)-6-(3-((1S,4R)-4-((3-(tert-butyl)-[1,2,4]triazolo[4,3-a]pyridin-6-yl)oxy)-1,2,3,4-tetrahydronaphthalen-1-yl)ureido)-N-(2-((R)-3-hydroxypyrrolidin-1-yl)ethyl)pyrimidine-2-carboxamide], the IC50 was greater than 5 nM in assay [1] and less than 1 nM on p38 alpha.

On to `CC(C)(C)c1cc(NC(=O)N[C@H]2CC[C@@H](Oc3ccc4nnc(C(C)(C)C)n4c3)c3ccccc32)nc(C(=O)NCCN2CC[C@H](O)C2)n1` [Example 94, 4-(tert-butyl)-6-(3-((1S,4R)-4-((3-(tert-butyl)-[1,2,4]triazolo[4,3-a]pyridin-6-yl)oxy)-1,2,3,4-tetrahydronaphthalen-1-yl)ureido)-N-(2-((S)-3-hydroxypyrrolidin-1-yl)ethyl)pyrimidine-2-carboxamide], for which the IC50 in assay [1] was greater than 5 nM; on p38 alpha, less than 1 nM.

Take `COC(C)(C)c1nnc2ccc(O[C@@H]3CC[C@H](NC(=O)Nc4cc(C(C)(C)C)nc(C(=O)NCCN5CCOCC5)n4)c4ccccc43)cn12` [Example 95, 4-(tert-butyl)-6-(3-((1S,4R)-4-((3-(2-methoxypropan-2-yl)-[1,2,4]triazolo[4,3-a]pyridin-6-yl)oxy)-1,2,3,4-tetrahydronaphthalen-1-yl)ureido)-N-(2-morpholinoethyl)-pyrimidine-2-carboxamide]: the IC50 was greater than 5 nM in assay [1] and 1 to 10 nM at p38 alpha.

On to `COC(C)(C)c1nnc2ccc(O[C@@H]3CC[C@H](NC(=O)Nc4cc(C(C)(C)C)nc(C(=O)NCCN(C)C)n4)c4ccccc43)cn12` [Example 96, 4-(tert-butyl)-N-(2-(dunethylamino)ethyl)-6-(3-((1S,4R)-4-((3-(2-methoxypropan-2-yl)-[1,2,4]triazolo[4,3-a]pyridin-6-yl)oxy)-1,2,3,4-tetrahydronaphthalen-1-yl)ureido)pyrimidine-2-carboxamide], for which the IC50 in assay [1] lay in the range of 1 to 5 nM; at p38 alpha, 1 to 10 nM.

Turning to `COCC(C)(C)c1nnc2ccc(O[C@@H]3CC[C@H](NC(=O)Nc4cc(C(C)(C)C)nc(C(=O)NCCN5CCOCC5)n4)c4ccccc43)cn12` [Example 97, 4-(tert-butyl)-6-(3-((1S,4R)-4-((3-(1-methoxy-2-methylpropan-2-yl)-[1,2,4]triazolo[4,3-a]pyridin-6-yl)oxy)-1,2,3,4-tetrahydronaphthalen-1-yl)ureido)-N-(2-morpholinoethyl)-pyrimidine-2-carboxamide], the IC50 is greater than 5 nM in assay [1] and less than 1 nM on p38 alpha.
